Tests used:
[1] = Absorption and bioavailability: plasma levels of hydrocortisone in rats; format: in vivo, male Sprague-Dawley rats
Protocol: Male Sprague-Dawley rats, with a body weight of 250-350 gr were used, obtained from Charles River-Calco (Como), fed ad libitum with water and compound feed in pellets, with the code name of 4RF 21, produced by "Italiana Mangimi", licensee of Charles River.
Hydrocortisone was administered in the form of sodium hemisuccinate salt at the dose of 1.34 mg/kg (corresponding to 1 mg/kg of hydrocortisone base) by general intravenous route and at the dose of 1.34 mg/kg and 2.68 mg/ kg (corresponding to 2 mg/ kg of hydrocortisone base) by subcutaneouos route (the i.v. route was considered in order to determine the pharmacokinetic parameters which serve as a comparison for the evaluation of absorption of any other administration route).
The three HYC derivatives were administered by subcutaneous route at the dose of 6.5 and 13 mg/kg (doses corresponding to about 1 and 2 mg/kg in hydrocortisone base). […] All the compounds were injected at a constant volume of 1 ml/kg.
After administration, 0.3 ml of blood was drawn from each animal by cardiac puncture in the presence of anticoagulant (sodium heparin).
Blood drawing times were as follows: *15 mins, 30 mins, 60 mins, 120 mins, 180 min, 300 mins, 360 mins, 420 mins, 480 mins (*limited to the intraveneous route).
The hydrocortisone was dosed by radioimmunoassay method (Cortisolo Kit, Biodata, cod. 10394) using iodate tracing. […] The linearity of the method comes between 1 and 1000 ng/ml. The observation limit is 1 ng/ml.
The dosage of the cortisolemia in the rat is not influenced either by the base levels or by the circadian rhythms of this hormone, as the metabolic pattern of the endogenous glucocorticoid hormones in the rat, leads to the production of corticosterone and not cortisol (see E. L. Green: Biology of the laboratory mouse.)
In Table 3 are reported the results of the average plasma levels of hydrocortisone, after i.v. and s.c. injection (1 and 2 mg/kg). […] In Table 4 are reported the pharmacokinetic parameters of cortisol calculated graphically from the plasmatic decline curves. In Table 3 are reported the average levels of cortisol after subcutaneous administration of the three HYC derivatives at doses of 6.5 and 13 mg/kg (corresponding to about 1 and 2 mg/kg in hydrocortisone base). In Table 4 are reported the pharmacokinetic parameters relative to cortisol calculated graphically with the method of residues from the plasma absorption curve of the three HYC products.

[2] = system: dextran-induced aseptic (exudative) phlogosis in rabbit eye; experiment: Anti-inflammatory activity: dextran-induced aseptic (exudative) phlogosis in rabbit eye; format: in vivo; settings: 3 drops every 6 hours, 4 treated eyes
Protocol: 9 hyaluronic esters of cortisone, hydrocortisone and fluorocortisone (9 fluorohydrocortisone) identified by the code names HYC1-HYC9 were tested. Table 1 describes these compounds and gives the percentages of the number of carboxylic groups of HY which are esterified with the above corticosteroids, and where applicable the percentage esterified with simple aliphatic alcohols and those salified with alkaline metals (Na):
Aseptic (exudative) phlogosis was induced in 48 rabbits by intraocular injection of dextran (1% in saline, 0.1 ml). The various products were administered by instillation in the right eye (RE) of the rabbits, while in the left eye (LE) only vehicle was instilled.
The treament (3 drops every 6 hours) was begun immediately after the injection of dextran and was continued for 16 days.
Both eyes of each rabbit were observed through a slit lamp. In particular the following were examined: the state of the conjunctiva and corneal epithelium, the anterior chamber (presence of Tyndall effect), state of the iris and of the posterior segment of the eye. With a Goldmann lens, the state of the back of the eye was examined. The presence of signs of inflammation (hyperemia, exudate, cloudiness of the liquids, etc.) was recorded.
Values are expressed as percentages (number of eyes without signs of phlogosis out of the total number of eyes treated). In brackets are the number of treated eyes.

[3] = 10 days from start of phlogosis
[4] = 12 days from start of phlogosis
[5] = 14 days from start of phlogosis
[6] = 16 days from start of phlogosis

Compound | linearity of kinetics (in words) ([1]; cortisol plasma kinetics, dose dependence) | Cmax (in words) ([1]; rat, in vivo) | Tmax ([1]; rat, in vivo, sc) [min] | AUC at 8 h ([1]; rat, in vivo, sc, 1 mg/kg) [ng·h/mL] | Tmax ([1]; rat, in vivo, sc, 1 mg/kg) [min] | bioavailability ([1]; rat, in vivo, sc, 1 mg/kg) [%] | half-life ([1]; rat, in vivo, sc, 1 mg/kg) [min] | k el ([1]; rat, in vivo, sc, 1 mg/kg) [s⁻¹] | eyes without signs of phlogosis out of the total number of eyes treated ([2]; 2 days from start of phlogosis) [%] | eyes without signs of phlogosis out of the total number of eyes treated ([2]; 4 days from start of phlogosis) [%] | eyes without signs of phlogosis out of the total number of eyes treated ([2]; 6 days from start of phlogosis) [%] | eyes without signs of phlogosis out of the total number of eyes treated ([2]; 8 days from start of phlogosis) [%] | eyes without signs of phlogosis out of the total number of eyes treated [2, 3] [%] | eyes without signs of phlogosis out of the total number of eyes treated [2, 4] [%] | eyes without signs of phlogosis out of the total number of eyes treated [2, 5] [%] | eyes without signs of phlogosis out of the total number of eyes treated [2, 6] [%]
C[C@]12CCC(=O)C=C1CC[C@@H]1[C@@H]2[C@@H](O)C[C@@]2(C)[C@H]1CC[C@]2(O)C(=O)CO [Hydrocortisone, hydrocortisone, reference compound] | linear | the same as the i.v. route levels at the same dose | ~30 | 192 | 30 | 70.3 | 270 | 4.17e-05 | 0.0 | 0.0 | 0.0 | 25.0 | 25.0 | 50.0 | 100.0 | 100.0
(partial) cortisone ester C21) of hyaluronic acid (HY) [HYC1] |  |  |  |  |  |  |  |  | 0.0 | 0.0 | 0.0 | 25.0 | 50.0 | 50.0 | 100.0 | 100.0
(partial) fluorocortisone ester (C21) of hyaluronic acid (HY) [HYC3] |  |  |  |  |  |  |  |  | 0.0 | 0.0 | 0.0 | 25.0 | 25.0 | 100.0 | 100.0 | 100.0

From US4851521A, “Esters of hyaluronic acid” (priority 1985, dated 1989)
